Source: ChEMBL document CHEMBL3885861, “Open TG-GATES”

Species: Rattus norvegicus
Assay: Open TG-GATES - Regimen: Single
Assay type: toxicity, organism-based, Sprague-Dawley
Parameters: regimen Single, gender Male, age 6 weeks
Settings: in vivo, po, 100 mg/kg, route gavage, dose level Middle; for APTT / Bas / Eos / Fbg / Hb / Ht / Lym / MCH / MCHC / MCV / Mono / Neu / PT / Plat / RBC / Ret / WBC: tissue Blood; for KIDNEY_L / KIDNEY_R / KIDNEY_TOTAL: tissue Kidney; for LIVER: tissue Liver; for A/G / ALP / ALT / AST / BUN / CRE / Ca / Cl / DBIL / GLC / IP / K / LDH / Na / PL / RALB / TBIL / TC / TG / TP / gamma-GTP: tissue Plasma

Nc1ccc(Cc2ccc(N)cc2)cc1
TERMINAL_BW (3 h): 212.4 g
APTT (3 h): 14.4 s
Bas (3 h): 0%
Eos (3 h): 0.6%
Fbg (3 h): 268.8 mg/dL
Hb (3 h): 13 g/dL
Ht (3 h): 38%
Lym (3 h): 75.8%
MCH (3 h): 21 pg
MCHC (3 h): 34.2%
MCV (3 h): 61.4 fL
Mono (3 h): 3.8%
Neu (3 h): 19.4%
PT (3 h): 11.7 s
Plat (3 h): 154.4 x10_4/uL
RBC (3 h): 618.6 x10_4/ul
Ret (3 h): 8.7%
WBC (3 h): 83.6 x10_2/uL
KIDNEY_L (3 h): 0.8 g
KIDNEY_R (3 h): 0.9 g
KIDNEY_TOTAL (3 h): 1.7 g
LIVER (3 h): 9.1 g
A/G (3 h): 0.8
ALP (3 h): 1470.6 IU/L
ALT (3 h): 45.6 IU/L
AST (3 h): 82.8 IU/L
BUN (3 h): 11 mg/dL
CRE (3 h): 0.2 mg/dL
Ca (3 h): 10.9 mg/dL
Cl (3 h): 104 meq/L
DBIL (3 h): 0.028 mg/dL
GLC (3 h): 173.6 mg/dL
IP (3 h): 9.4 mg/dL
K (3 h): 4 meq/L
LDH (3 h): 64.4 IU/L
Na (3 h): 140.2 meq/L
PL (3 h): 155.6 mg/dL
RALB (3 h): 2.5 g/dL
TBIL (3 h): 0.074 mg/dL
TC (3 h): 86.4 mg/dL
TG (3 h): 73 mg/dL
TP (3 h): 5.6 g/dL
gamma-GTP (3 h): 1.2 IU/L
TERMINAL_BW (6 h): 206.8 g
APTT (6 h): 14.6 s
Bas (6 h): 0%
Eos (6 h): 0.6%
Fbg (6 h): 278 mg/dL
Hb (6 h): 13.4 g/dL
Ht (6 h): 39.2%
Lym (6 h): 62.4%
MCH (6 h): 21.2 pg
MCHC (6 h): 34.1%
MCV (6 h): 62.3 fL
Mono (6 h): 3.6%
Neu (6 h): 32.2%
PT (6 h): 11.8 s
Plat (6 h): 144.9 x10_4/uL
RBC (6 h): 630.2 x10_4/ul
Ret (6 h): 8.2%
WBC (6 h): 104 x10_2/uL
KIDNEY_L (6 h): 0.9 g
KIDNEY_R (6 h): 0.9 g
KIDNEY_TOTAL (6 h): 1.9 g
LIVER (6 h): 9.3 g
A/G (6 h): 0.8
ALP (6 h): 1520.8 IU/L
ALT (6 h): 42.8 IU/L
AST (6 h): 94.8 IU/L
BUN (6 h): 8.8 mg/dL
CRE (6 h): 0.2 mg/dL
Ca (6 h): 10.5 mg/dL
Cl (6 h): 104.6 meq/L
DBIL (6 h): 0.1 mg/dL
GLC (6 h): 176.2 mg/dL
IP (6 h): 9.5 mg/dL
K (6 h): 4 meq/L
LDH (6 h): 90 IU/L
Na (6 h): 140.2 meq/L
PL (6 h): 152.4 mg/dL
RALB (6 h): 2.5 g/dL
TBIL (6 h): 0.2 mg/dL
TC (6 h): 79 mg/dL
TG (6 h): 53.2 mg/dL
TP (6 h): 5.6 g/dL
gamma-GTP (6 h): 2.6 IU/L
TERMINAL_BW (9 h): 205.5 g
APTT (9 h): 14.8 s
Bas (9 h): 0%
Eos (9 h): 0.8%
Fbg (9 h): 285.4 mg/dL
Hb (9 h): 13 g/dL
Ht (9 h): 37.8%
Lym (9 h): 68.6%
MCH (9 h): 21.2 pg
MCHC (9 h): 34.2%
MCV (9 h): 61.9 fL
Mono (9 h): 2.8%
Neu (9 h): 27.6%
PT (9 h): 12.1 s
Plat (9 h): 139.1 x10_4/uL
RBC (9 h): 610.8 x10_4/ul
Ret (9 h): 7.8%
WBC (9 h): 72.9 x10_2/uL
KIDNEY_L (9 h): 0.9 g
KIDNEY_R (9 h): 0.9 g
KIDNEY_TOTAL (9 h): 1.8 g
LIVER (9 h): 8 g
A/G (9 h): 0.8
ALP (9 h): 1218.8 IU/L
ALT (9 h): 43.8 IU/L
AST (9 h): 105 IU/L
BUN (9 h): 8.2 mg/dL
CRE (9 h): 0.2 mg/dL
Ca (9 h): 10.2 mg/dL
Cl (9 h): 106.2 meq/L
DBIL (9 h): 0.2 mg/dL
GLC (9 h): 167.6 mg/dL
IP (9 h): 9.4 mg/dL
K (9 h): 4.5 meq/L
LDH (9 h): 99 IU/L
Na (9 h): 142.4 meq/L
PL (9 h): 166.2 mg/dL
RALB (9 h): 2.4 g/dL
TBIL (9 h): 0.3 mg/dL
TC (9 h): 86.8 mg/dL
TG (9 h): 39.8 mg/dL
TP (9 h): 5.3 g/dL
gamma-GTP (9 h): 3.4 IU/L
TERMINAL_BW (24 h): 195.3 g
APTT (24 h): 16.4 s
Bas (24 h): 0%
Eos (24 h): 0.4%
Fbg (24 h): 474.8 mg/dL
Hb (24 h): 12.6 g/dL
Ht (24 h): 35.7%
Lym (24 h): 62.4%
MCH (24 h): 21.5 pg
MCHC (24 h): 35.4%
MCV (24 h): 60.6 fL
Mono (24 h): 5%
Neu (24 h): 31%
PT (24 h): 11.5 s
Plat (24 h): 149.3 x10_4/uL
RBC (24 h): 589 x10_4/ul
Ret (24 h): 6.7%
WBC (24 h): 118.7 x10_2/uL
KIDNEY_L (24 h): 0.9 g
KIDNEY_R (24 h): 0.9 g
KIDNEY_TOTAL (24 h): 1.8 g
LIVER (24 h): 7.8 g
A/G (24 h): 0.8
ALP (24 h): 3282.4 IU/L
ALT (24 h): 252.8 IU/L
AST (24 h): 532.6 IU/L
BUN (24 h): 11.2 mg/dL
CRE (24 h): 0.2 mg/dL
Ca (24 h): 11.1 mg/dL
Cl (24 h): 102.2 meq/L
DBIL (24 h): 2.3 mg/dL
GLC (24 h): 136.2 mg/dL
IP (24 h): 9.6 mg/dL
K (24 h): 3.8 meq/L
LDH (24 h): 332.8 IU/L
Na (24 h): 143.8 meq/L
PL (24 h): 302.6 mg/dL
RALB (24 h): 2.4 g/dL
TBIL (24 h): 3.1 mg/dL
TC (24 h): 135.2 mg/dL
TG (24 h): 63.4 mg/dL
TP (24 h): 5.6 g/dL
gamma-GTP (24 h): 8.6 IU/L
